Values after ≈ are worked out from the molar mass of the structure shown. Blank lines part the entries; values can stand above or below the compound they belong to.
Assays:
[1] = tested on: Radical scavenging activity; assay: Antioxidant activity assessed as DPPH radical scavenging activity at 4 ug/mL after 30 min by spectrophotometric analysis relative to control; format: functional
[2] = tested on: Radical scavenging activity; assay: Antioxidant activity assessed as DPPH radical scavenging activity after 30 min by spectrophotometric analysis; format: functional
[3] = tested on: Radical scavenging activity; assay: Antioxidant activity assessed as DPPH radical scavenging activity at 10 ug/mL after 30 min by spectrophotometric analysis relative to control; format: functional
[4] = tested on: Radical scavenging activity; assay: Antioxidant activity assessed as DPPH radical scavenging activity at 2 ug/mL after 30 min by spectrophotometric analysis relative to control; format: functional
[5] = tested on: Radical scavenging activity; assay: Antioxidant activity assessed as DPPH radical scavenging activity at 8 ug/mL after 30 min by spectrophotometric analysis relative to control; format: functional
[6] = tested on: Radical scavenging activity; assay: Antioxidant activity assessed as DPPH radical scavenging activity at 6 ug/mL after 30 min by spectrophotometric analysis relative to control; format: functional
Talaromyces marneffei [7] = assay: Fungicidal activity against Talaromyces marneffei after 48 hr; format: functional
Pseudomonas aeruginosa [8] = assay: Antibacterial activity against Pseudomonas aeruginosa ATCC 9029 assessed as growth inhibition after 24 hr by disk diffusion method; format: functional
Streptococcus pyogenes [9] = assay: Bactericidal activity against Streptococcus pyogenes clinical isolate after 18 to 24 hr; format: functional
Staphylococcus aureus [10] = assay: Antibacterial activity against methicillin-resistant Staphylococcus aureus assessed as growth inhibition after 24 hr by macro-dilution method; format: functional
Aspergillus fumigatus [11] = assay: Fungicidal activity against Aspergillus fumigatus after 48 hr; format: functional
Aspergillus fumigatus [12] = assay: Antifungal activity against Aspergillus fumigatus assessed as growth inhibition after 48 hr by macro-dilution method; format: functional
Klebsiella pneumoniae [13] = assay: Antibacterial activity against Klebsiella pneumoniae clinical isolate assessed as growth inhibition after 24 hr by disk diffusion method; format: functional
Escherichia coli [14] = assay: Antibacterial activity against Escherichia coli ATCC 8739 assessed as growth inhibition after 24 hr by macro-dilution method; conditions: ATCC 8739, 24 h
Staphylococcus aureus [15] = assay: Bactericidal activity against methicillin-resistant Staphylococcus aureus after 18 to 24 hr; format: functional
Candida albicans [16] = assay: Antifungal activity against Candida albicans ATCC 90028 assessed as growth inhibition after 48 hr by agar disk diffusion method; format: functional
Talaromyces marneffei [17] = assay: Antifungal activity against Talaromyces marneffei assessed as growth inhibition after 48 hr by macro-dilution method; format: functional
Streptococcus pyogenes [18] = assay: Antibacterial activity against Streptococcus pyogenes clinical isolate assessed as growth inhibition after 24 hr by disk diffusion method; format: functional
Talaromyces marneffei [19] = assay: Antifungal activity against Talaromyces marneffei assessed as growth inhibition after 48 hr by agar disk diffusion method; format: functional
Candida albicans [20] = assay: Fungicidal activity against Candida albicans ATCC 90028 after 48 hr; format: functional; conditions: ATCC 90028, 48 h
[21] = tested on: Trichophyton mentagrophytes; assay: Fungicidal activity against Trichophyton mentagrophytes after 48 hr; format: functional
Pseudomonas aeruginosa [22] = assay: Antibacterial activity against Pseudomonas aeruginosa ATCC 9029 assessed as growth inhibition after 24 hr by macro-dilution method; format: functional; conditions: ATCC 9029, 24 h
[23] = tested on: Trichophyton mentagrophytes; assay: Antifungal activity against Trichophyton mentagrophytes assessed as growth inhibition after 48 hr by agar disk diffusion method; format: functional
Streptococcus pyogenes [24] = assay: Antibacterial activity against Streptococcus pyogenes clinical isolate assessed as growth inhibition after 24 hr by macro-dilution method; format: functional
Escherichia coli [25] = assay: Antibacterial activity against Escherichia coli ATCC 25922 assessed as growth inhibition after 24 hr by disk diffusion method; format: functional
Pseudomonas aeruginosa [26] = assay: Bactericidal activity against Pseudomonas aeruginosa ATCC 9029 after 18 to 24 hr; format: functional
Aspergillus fumigatus [27] = assay: Antifungal activity against Aspergillus fumigatus assessed as growth inhibition after 48 hr by agar disk diffusion method; format: functional
Escherichia coli [28] = assay: Bactericidal activity against Escherichia coli ATCC 25922 after 18 to 24 hr; format: functional
Klebsiella pneumoniae [29] = assay: Bactericidal activity against Klebsiella pneumoniae clinical isolate after 18 to 24 hr; format: functional
[30] = tested on: Trichophyton mentagrophytes; assay: Antifungal activity against Trichophyton mentagrophytes assessed as growth inhibition after 48 hr by macro-dilution method; format: functional
Klebsiella pneumoniae [31] = assay: Antibacterial activity against Klebsiella pneumoniae clinical isolate assessed as growth inhibition after 24 hr by macro-dilution method; format: functional
Candida albicans [32] = assay: Antifungal activity against Candida albicans ATCC 90028 assessed as growth inhibition after 48 hr by macro-dilution method; format: functional; conditions: ATCC 90028, 48 h
Staphylococcus aureus [33] = assay: Antibacterial activity against methicillin-resistant Staphylococcus aureus assessed as growth inhibition after 24 hr by disk diffusion method; format: functional

- IC50 [2]: 4.45 µg/mL (≈ 25.3 µM)
SMILES: O=C1O[C@H]([C@@H](O)CO)C(O)=C1O [ASCORBIC ACID]
- Activity [1]: 34.9%
- Activity [3]: 87%
- Activity [4]: 18.4%
- Activity [5]: 69.3%
- Activity [6]: 53.4%

SMILES: CC1(c2cccc(O)c2)NNC(=O)CO1 (stereo not given)
- Activity [1]: 31.8%
- MFC (Talaromyces marneffei [7]): 50 µg/mL (≈ 240 µM)
- IC50 [2]: 5.99 µg/mL (≈ 28.8 µM)
- diameter of the inhibition zone (DIZ) (Pseudomonas aeruginosa [8]): 26.2 mm
- Activity [3]: 82.8%
- MBC (Streptococcus pyogenes [9]): 25 µg/mL (≈ 120 µM)
- Activity [4]: 16.7%
- MIC (Staphylococcus aureus [10]): 12.5 µg/mL (≈ 60 µM)
- MFC (Aspergillus fumigatus [11]): 50 µg/mL (≈ 240 µM)
- MIC (Aspergillus fumigatus [12]): 12.5 µg/mL (≈ 60 µM)
- diameter of the inhibition zone (DIZ) (Klebsiella pneumoniae [13]): 15.1 mm
- MIC (Escherichia coli [14]): 12.5 µg/mL (≈ 60 µM)
- MBC (Staphylococcus aureus [15]): 25 µg/mL (≈ 120 µM)
- diameter of the inhibition zone (DIZ) (Candida albicans [16]): 25.5 mm
- MIC (Talaromyces marneffei [17]): 12.5 µg/mL (≈ 60 µM)
- diameter of the inhibition zone (DIZ) (Streptococcus pyogenes [18]): 19.4 mm
- diameter of the inhibition zone (DIZ) (Talaromyces marneffei [19]): 14.5 mm
- MFC (Candida albicans [20]): 25 µg/mL (≈ 120 µM)
- MFC [21]: 25 µg/mL (≈ 120 µM)
- MIC (Pseudomonas aeruginosa [22]): 12.5 µg/mL (≈ 60 µM)
- Activity [5]: 66.3%
- diameter of the inhibition zone (DIZ) [23]: 17.2 mm
- MIC (Streptococcus pyogenes [24]): 12.5 µg/mL (≈ 60 µM)
- Activity [6]: 50.2%
- diameter of the inhibition zone (DIZ) (Escherichia coli [25]): 25.4 mm
- MBC (Pseudomonas aeruginosa [26]): 25 µg/mL (≈ 120 µM)
- diameter of the inhibition zone (DIZ) (Aspergillus fumigatus [27]): 22.4 mm
- MBC (Escherichia coli [28]): 50 µg/mL (≈ 240 µM)
- MBC (Klebsiella pneumoniae [29]): 25 µg/mL (≈ 120 µM)
- MIC [30]: 12.5 µg/mL (≈ 60 µM)
- MIC (Klebsiella pneumoniae [31]): 12.5 µg/mL (≈ 60 µM)
- MIC (Candida albicans [32]): 12.5 µg/mL (≈ 60 µM)
- diameter of the inhibition zone (DIZ) (Staphylococcus aureus [33]): 19.1 mm

SMILES: CC1(c2ccccc2)NNC(=O)CO1 (stereo not given)
- Activity [1]: 23.8%
- MFC (Talaromyces marneffei [7]): 100 µg/mL (≈ 520 µM)
- IC50 [2]: 8.25 µg/mL (≈ 42.9 µM)
- diameter of the inhibition zone (DIZ) (Pseudomonas aeruginosa [8]): 24.2 mm
- Activity [3]: 59.5%
- MBC (Streptococcus pyogenes [9]): 50 µg/mL (≈ 260 µM)
- Activity [4]: 9.86%
- MIC (Staphylococcus aureus [10]): 25 µg/mL (≈ 130 µM)
- MFC (Aspergillus fumigatus [11]): 50 µg/mL (≈ 260 µM)
- MIC (Aspergillus fumigatus [12]): 25 µg/mL (≈ 130 µM)
- diameter of the inhibition zone (DIZ) (Klebsiella pneumoniae [13]): 14.1 mm
- MIC (Escherichia coli [14]): 25 µg/mL (≈ 130 µM)
- MBC (Staphylococcus aureus [15]): 50 µg/mL (≈ 260 µM)
- diameter of the inhibition zone (DIZ) (Candida albicans [16]): 21.4 mm
- MIC (Talaromyces marneffei [17]): 25 µg/mL (≈ 130 µM)
- diameter of the inhibition zone (DIZ) (Streptococcus pyogenes [18]): 19.1 mm
- diameter of the inhibition zone (DIZ) (Talaromyces marneffei [19]): 14.1 mm
- MFC (Candida albicans [20]): 25 µg/mL (≈ 130 µM)
- MFC [21]: 50 µg/mL (≈ 260 µM)
- MIC (Pseudomonas aeruginosa [22]): 25 µg/mL (≈ 130 µM)
- Activity [5]: 46.8%
- diameter of the inhibition zone (DIZ) [23]: 14.5 mm
- MIC (Streptococcus pyogenes [24]): 25 µg/mL (≈ 130 µM)
- Activity [6]: 34.8%
- diameter of the inhibition zone (DIZ) (Escherichia coli [25]): 17.4 mm
- MBC (Pseudomonas aeruginosa [26]): 100 µg/mL (≈ 520 µM)
- diameter of the inhibition zone (DIZ) (Aspergillus fumigatus [27]): 17.2 mm
- MBC (Escherichia coli [28]): 50 µg/mL (≈ 260 µM)
- MBC (Klebsiella pneumoniae [29]): 100 µg/mL (≈ 520 µM)
- MIC [30]: 25 µg/mL (≈ 130 µM)
- MIC (Klebsiella pneumoniae [31]): 25 µg/mL (≈ 130 µM)
- MIC (Candida albicans [32]): 25 µg/mL (≈ 130 µM)
- diameter of the inhibition zone (DIZ) (Staphylococcus aureus [33]): 18.2 mm

SMILES: CC1(c2cc(O)ccc2O)NNC(=O)CO1 (stereo not given)
- Activity [1]: 18.7%
- MFC (Talaromyces marneffei [7]): 100 µg/mL (≈ 446 µM)
- IC50 [2]: 12.95 µg/mL (≈ 57.8 µM)
- diameter of the inhibition zone (DIZ) (Pseudomonas aeruginosa [8]): 24.1 mm
- Activity [3]: 32.3%
- MBC (Streptococcus pyogenes [9]): 100 µg/mL (≈ 446 µM)
- Activity [4]: 6.61%
- MIC (Staphylococcus aureus [10]): 50 µg/mL (≈ 223 µM)
- MFC (Aspergillus fumigatus [11]): 100 µg/mL (≈ 446 µM)
- MIC (Aspergillus fumigatus [12]): 50 µg/mL (≈ 223 µM)
- diameter of the inhibition zone (DIZ) (Klebsiella pneumoniae [13]): 14.8 mm
- MIC (Escherichia coli [14]): 50 µg/mL (≈ 223 µM)
- MBC (Staphylococcus aureus [15]): 100 µg/mL (≈ 446 µM)
- diameter of the inhibition zone (DIZ) (Candida albicans [16]): 21.4 mm
- MIC (Talaromyces marneffei [17]): 50 µg/mL (≈ 223 µM)
- diameter of the inhibition zone (DIZ) (Streptococcus pyogenes [18]): 18.6 mm
- diameter of the inhibition zone (DIZ) (Talaromyces marneffei [19]): 11.7 mm
- MFC (Candida albicans [20]): 100 µg/mL (≈ 446 µM)
- MFC [21]: 100 µg/mL (≈ 446 µM)
- MIC (Pseudomonas aeruginosa [22]): 50 µg/mL (≈ 223 µM)
- Activity [5]: 30.3%
- diameter of the inhibition zone (DIZ) [23]: 14.8 mm
- MIC (Streptococcus pyogenes [24]): 50 µg/mL (≈ 223 µM)
- Activity [6]: 25.2%
- diameter of the inhibition zone (DIZ) (Escherichia coli [25]): 17.2 mm
- MBC (Pseudomonas aeruginosa [26]): 100 µg/mL (≈ 446 µM)
- diameter of the inhibition zone (DIZ) (Aspergillus fumigatus [27]): 16.8 mm
- MBC (Escherichia coli [28]): 100 µg/mL (≈ 446 µM)
- MBC (Klebsiella pneumoniae [29]): 100 µg/mL (≈ 446 µM)
- MIC [30]: 50 µg/mL (≈ 223 µM)
- MIC (Klebsiella pneumoniae [31]): 50 µg/mL (≈ 223 µM)
- MIC (Candida albicans [32]): 50 µg/mL (≈ 223 µM)
- diameter of the inhibition zone (DIZ) (Staphylococcus aureus [33]): 17.6 mm

Reference: ChEMBL document CHEMBL3045916, “Synthesis, characterization, biological evaluation and in silico screening of oxadiazinanones” (Med Chem Res, 2013)
